Consider two compounds from patent US8637246B2, “BRAF mutations conferring resistance to BRAF inhibitors” (Dana-Farber Cancer Institute, Inc., priority 2010, dated 2014).

The target of one experiment is BRAF V600E-P686Q (Homo sapiens, UniProt P15056, P686Q/V600E). In words: Western blot of p-MEK1/2 and p-ERK1/2 in transfected 293T cells (BRAF V600E-P686Q). It counts as cell-based. The following applies: 293T cells transfected with BRAF V600E-P686Q; 0, 0.08, 0.4, 2, 5 and 10 μM for 16 hours; immunoblot (FIG. 8). The method, then:
(§1) 293T cells were transfected with 6 μg of pWZL(BLAST)-BRAF for each putative resistance allele and subsequently treated with a range of concentrations of the BRAF(V600E) inhibitor PLX4720 (0, 0.08, 0.4, 2, 5 and 10 μM) for 16 hours. Immunoblot studies were performed using standard procedures. Briefly, the treated cells were lysed with TNN buffer containing protease inhibitor (Roche), NaF and NaVO3 (1 mM each). Lysates were quantified (Bradford assay), denatured (95° C.), and resolved by SDS gel electrophoresis. Proteins was transferred to nitrocellulose membranes and probed with primary antibodies recognizing BRAF (Santa Cruz; 1:10,000 dilution), p-ERK1/2, p-MEK1/2 (Ser-217/221), and α-tubulin (Cell Signaling Technology; 1:1,000 dilution). After incubation with the appropriate secondary antibody (anti-rabbit or anti-mouse IgG, HRP-linked; 1:1,000 dilution) (Cell Signaling Technology), proteins were detected using chemiluminescence (Pierce).
A general note: In western blotting, separated proteins are transferred to a membrane and probed.

The next experiment deals with BRAF-V600E-T521K (Homo sapiens, UniProt P15056, T521K/V600E). The experiment can be described thus: Western blot of p-MEK1/2 and p-ERK1/2 in transfected 293T cells (BRAF-V600E-T521K). The following applies: 293T cells transfected with BRAF-V600E-T521K; 0, 0.08, 0.4, 2, 5 and 10 μM for 16 hours; immunoblot (FIG. 8). The format is cell-based. As for the experimental part: as §1
Sequence of BRAF-V600E-T521K (P15056 whole entry T521K/V600E): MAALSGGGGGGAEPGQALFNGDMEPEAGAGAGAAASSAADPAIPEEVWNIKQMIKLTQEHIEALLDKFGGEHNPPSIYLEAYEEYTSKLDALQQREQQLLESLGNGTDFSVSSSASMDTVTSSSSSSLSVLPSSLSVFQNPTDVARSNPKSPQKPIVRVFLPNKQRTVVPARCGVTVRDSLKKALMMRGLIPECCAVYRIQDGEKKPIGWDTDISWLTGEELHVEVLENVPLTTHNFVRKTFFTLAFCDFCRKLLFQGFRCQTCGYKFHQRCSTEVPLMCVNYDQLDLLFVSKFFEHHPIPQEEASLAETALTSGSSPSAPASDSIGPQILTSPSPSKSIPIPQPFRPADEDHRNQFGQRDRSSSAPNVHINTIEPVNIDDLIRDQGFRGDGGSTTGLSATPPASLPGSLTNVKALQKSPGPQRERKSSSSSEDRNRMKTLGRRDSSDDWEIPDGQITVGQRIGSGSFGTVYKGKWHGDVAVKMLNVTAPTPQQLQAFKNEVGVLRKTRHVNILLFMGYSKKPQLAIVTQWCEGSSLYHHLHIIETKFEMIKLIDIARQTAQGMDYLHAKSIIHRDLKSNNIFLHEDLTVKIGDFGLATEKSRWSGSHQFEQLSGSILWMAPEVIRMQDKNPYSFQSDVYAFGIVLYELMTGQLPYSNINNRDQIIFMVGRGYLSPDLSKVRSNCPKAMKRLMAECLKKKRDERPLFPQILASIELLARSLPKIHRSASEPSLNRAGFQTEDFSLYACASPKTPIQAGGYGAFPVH

Experiment [1] has as its system A375 cells expressing a wild-type BRAF polypeptide.
The subject of experiment [2] is A375 cells expressing a mutant BRAF polypeptide. The following applies: A375 cells expressing a mutant BRAF polypeptide with one or more listed resistance mutations (A29V ... C748F).

Sequence of BRAF V600E-P686Q (P15056 whole entry V600E/P686Q): as the sequence (P15056 whole entry T521K/V600E) above, with K521T, P686Q counted along it

Turning to `CCCS(=O)(=O)Nc1ccc(F)c(C(=O)c2c[nH]c3ncc(Cl)cc23)c1F` [PLX4720], the “increase in phosphorylated MEK1/2 and ERK1/2 in the presence of increasing concentrations of inhibitor” value on BRAF V600E-P686Q and at BRAF-V600E-T521K was “sustained” throughout.
As to `Cn1c(Nc2ccc(C(F)(F)F)cc2)nc2cc(Oc3ccnc(-c4ncc(C(F)(F)F)[nH]4)c3)ccc21` [RAF-265], the “sensitivity of cells to the RAF inhibitor” value is “sensitive” in experiment [1] and “resistant” in experiment [2].
